From patent US11471472B2, “Use of verbascoside in preparation of drug for preventing or treating glomerular podocyte injured renal disease” (SICHUAN MEDCO PHARMACEUTICAL STOCK CO., LTD., priority 2017, dated 2022) come the findings set out here.

Assay [1] relates to rats suffering from puromycin-caused nephropathy. Description: 24-hour urine protein in rats suffering from puromycin-caused nephropathy. The conditions noted are these: 10 mg/kg verbascoside intragastrically every day. In kind it is in vivo, Sprague-Dawley rats. The text has this: (§1) The animal experiment was approved by Animal Ethics Committee of Peking University First Hospital, with Resolution No.: J201644. 51 male Sprague-Dawley rats (6 weeks) of the same batch were purchased from Beijing Charles River Company, raised at the animal center of Peking University First Hospital (clean grade), and randomly divided into 3 groups after 3 days of acclimation:
1. normal control group (CON)
2. puromycin disease group (PAN)
3. puromycin+verbascoside-treated group (PAN+ACT)
(§2) In the above, groups 2 and 3 were intraperitoneally subjected to single injection of puromycin (Sigma P7130) by 15 mg/100 g at day 0 of the experiment. The normal control group was intraperitoneally injected with the same dosage of physiological saline. Group 3 was intragastrically treated with 10 mg/kg verbascoside every day, and groups 1 and 2 were intragastrically treated with the same dosage of injection water every day. In the experiment process, 24-hour urine of the rats was collected respectively before the administration (Day 0), and at the 5th day, the 10th day, the 15th day, and the 20th day (Day 5, Day 10, Day 15, and Day 20) after the administration, for quantitative measurement of urine protein (Hitachi 7170A full-automatic biochemical analyzer). The rats were sacrificed at the 20th day (Day 20) after the injection of puromycin, and kidney specimens were collected, which were subsequently used for extracting protein, extracting RNA, taking paraffin-embedded and frozen specimens, and separating glomeruli.
In order to determine the therapeutic effect of verbascoside on the rats suffering from puromycin-caused nephropathy, the rats were divided into 3 groups, normal control group (CON), disease group (PAN), and verbascoside group (PAN+ACT). 24-hour urine of the rats in each group were sampled every 5 days. The effect of verbascoside for treating the nephropathic proteinuria level was reflected by collecting and detecting blood and urine samples of the rats in each group.

The subject of assay [2] is nephrin. Nature of the assay: Nephrin protein expression in puromycin-induced podocyte damage (western blot). In kind it is cell-based, mouse. The conditions noted are these: 24 hours. The method, then: A mouse podocyte line MPC5 was offered by professor Peter Mundel from Mount Sinai Medical School, New York, USA. After recovery, podocytes were placed in a 33° C., 5% CO2 cell incubator to be cultured for proliferation thereof. When a fusion degree thereof reached about 80%, the podocytes were transferred into a 37° C. incubator to be differentiated for 10-14 days such that the podocytes were differentiated to be mature. After the podocytes were differentiated to be mature, the podocytes were inoculated in a 6-well plate, and after the podocytes adhered to the wall, puromycin and verbascoside were added into the plate to stimulate the podocytes for 24 hours, and then proteins or RNAs were collected for later detection. […]

Assay [3] concerns mouse podocyte line MPC5. Description: Detection of podocyte activity with MTS in puromycin-induced podocyte damage. In kind it is cell-based. The settings on record: 24 h. On the procedure:
(§3) A mouse podocyte line MPC5 was offered by professor Peter Mundel from Mount Sinai Medical School, New York, USA. After recovery, podocytes were placed in a 33° C., 5% CO2 cell incubator to be cultured for proliferation thereof. When a fusion degree thereof reached about 80%, the podocytes were transferred into a 37° C. incubator to be differentiated for 10-14 days such that the podocytes were differentiated to be mature. After the podocytes were differentiated to be mature, the podocytes were inoculated in a 6-well plate, and after the podocytes adhered to the wall, puromycin and verbascoside were added into the plate to stimulate the podocytes for 24 hours, and then proteins or RNAs were collected for later detection.
After subculturing and counting the podocytes, the podocytes were uniformly inoculated into a 96-well plate at a density of 1.0×10^5/mL, after the cells adhered to the wall, puromycin and verbascoside were respectively added to treat the podocytes, then after 24 h, the culture medium was discarded, a culture medium containing MTS (Promega G1112) was added with the MTS content of 10 μl MTS per 100 μl of the culture medium, the 96-well plate added with the MTS was placed in a light-tight environment at 37° C. for 4 h and then taken out, and an OD value was measured at 490 nm wavelength using the ELIASA.

Assay [4] has as its system mouse podocyte line MPC5. Nature of the assay: Phalloidin staining of podocyte cytoskeletal microfilamentous proteins. The conditions noted are these: puromycin-treated podocytes. In kind it is cell-based. On the procedure:
as §3
The kidney tissue was sliced. First, slices were subjected to xylene and gradient alcohol deparaffinization, followed by antigen retrieval, and then punched with 0.3% Triton-PBS. […] The mixture was rinsed with deionized water, mounted with 50% buffered glycerol, edge sealed with nail polish, observed under a fluorescence microscope, and photographed. […]

The next assay deals with synaptopodin. Description: Synaptopodin immunofluorescence of kidney tissue in puromycin-induced nephropathic rats. In kind it is in vivo, Sprague-Dawley rats. The settings on record: 20th day, 10 mg/kg intragastrically every day. On the procedure:
as §1
as §2, with “The rats were sacrificed at the 20th day (Day 20) after the injection of puromycin, and kidney specimens were collected, which were subsequently used for extracting protein, extracting RNA, taking paraffin-embedded and frozen specimens, and separating glomeruli.” left out
The kidney tissue was sliced. […] The mixture was rinsed with deionized water, mounted with 50% buffered glycerol, edge sealed with nail polish, observed under a fluorescence microscope, and photographed. […]

Assay [5] concerns mouse podocyte line MPC5. Description: Cell migration (scratch) experiment in puromycin-treated podocytes. In kind it is cell-based. The settings on record: 24 hours after scratch. On the procedure: as §3
The differentiated podocytes were inoculated on a 6-well plate coated with rat type I collagen, and when the fusion degree thereof reached 60%, a line was scratched on a baseboard using a 200 μL sterile high-pressure gun tip, then the plate was flushed clean using PBS and a clean culture medium was used in replacement, which time was served as the 0th hour, and a photo was taken by an inverted microscope, then a corresponding drug was added for intervention, then after 24 hours, a photo was taken again, and finally analysis was made using ImageJ software. The final result was expressed by percentage of coverage.

Assay [6] concerns nephrin. Nature of the assay: Nephrin gene and protein expression in glomeruli of puromycin-induced nephropathic rats (western, real-time quantitative PCR). In kind it is in vivo, Sprague-Dawley rats. The settings on record: 20th day, 10 mg/kg intragastrically every day. On the procedure:
as §1
as §2, with “The rats were sacrificed at the 20th day (Day 20) after the injection of puromycin, and kidney specimens were collected, which were subsequently used for extracting protein, extracting RNA, taking paraffin-embedded and frozen specimens, and separating glomeruli.” left out

The subject of the next assay is podocyte foot process. Nature of the assay: Podocyte foot process under electron microscope in puromycin-induced nephropathic rat models. In kind it is in vivo, Sprague-Dawley rats. The conditions noted are these: 20th day; 10 mg/kg intragastrically every day. The method, then: as §1
as §2, with “The rats were sacrificed at the 20th day (Day 20) after the injection of puromycin, and kidney specimens were collected, which were subsequently used for extracting protein, extracting RNA, taking paraffin-embedded and frozen specimens, and separating glomeruli.” left out

In the case of Verbascoside, in assay [1] (5th day, puromycin 15 mg/100 g i.p.), the “24-hour urine protein vs puromycin group” value was “not significantly different”. Besides, the “24-hour urine protein vs disease group” value in assay [1] (10th day, puromycin 15 mg/100 g i.p.) was “decreased significantly”. For the same substance, the 24-hour proteinuria abnormality entry in assay [1] (15th day) and in assay [1] (20th day) was “remarkably relieved” each time. Further, the “nephrin expression (protein)” value with nephrin [2] is listed as “improved”. For the same substance, in the assay with mouse podocyte line MPC5 [3], the “podocyte viability (MTS, OD 490 nm)” value was “recovered”. The “arrangement of the cytoskeletons (phalloidin)” value with mouse podocyte line MPC5 [4] was “restored”. In the assay on synaptopodin, the synaptopodin fluorescence intensity entry was “recovered”. Moreover, the “podocyte migration capability (percentage of coverage)” value in the assay on mouse podocyte line MPC5 [5] is recorded as “restored”. The “nephrin gene expression level (real-time quantitative PCR)” value with nephrin [6] was “increased”. The “nephrin protein expression level (western)” value with nephrin [6] was “increased”. The “podocyte foot process fusion (electron microscope)” value with podocyte foot process is recorded as “recovered apparently”.
